Measurements as given in paper PMC5814560, “6-Thioguanine is a noncompetitive and slow binding inhibitor of human deubiquitinating protease USP2” (Scientific Reports, 2018).

Assays:
[1] = target: T1, USP2 (ubiquitin-specific protease 2) (Homo sapiens, UniProt O75604); test: Ub-AFC deubiquitination kinetics, noncompetitive fit; very weak, called ineffective by the authors; format: biochemical; set-up: catalytic domain, residues 258–605; conditions: read-out: Kis
Target sequence in this assay (O75604 258-605): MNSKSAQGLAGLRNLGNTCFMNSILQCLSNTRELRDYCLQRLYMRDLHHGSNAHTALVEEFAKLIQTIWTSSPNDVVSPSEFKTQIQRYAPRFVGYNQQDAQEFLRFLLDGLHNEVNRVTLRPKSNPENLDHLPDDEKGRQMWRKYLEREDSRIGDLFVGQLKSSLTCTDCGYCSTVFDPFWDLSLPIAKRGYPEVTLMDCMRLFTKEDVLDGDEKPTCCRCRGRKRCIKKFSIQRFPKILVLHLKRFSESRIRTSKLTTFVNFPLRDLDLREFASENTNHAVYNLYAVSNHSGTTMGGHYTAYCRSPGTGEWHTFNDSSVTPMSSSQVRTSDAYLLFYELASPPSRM

[2] = target: T1, USP2 (ubiquitin-specific protease 2); test: X-ray crystal structure (soak, […] Å, about […] occupancy); Ub-AFC deubiquitination kinetics (Kis […], IC50 […]); format: biochemical; set-up: catalytic domain, residues 258–605; with ubiquitin (Ub) in the crystal
Target sequence in this assay (O75604 258-605, other chains not shown): as the sequence (O75604 258-605) above

Row | Structure (SMILES) | Ki [1] [µM] | Ki [2] [µM]
1 | Sc1ncnc2nc[nH]c12 [6MP, 6-mercaptopurine] | 349 ± 23.7 | –
2 | Nc1nc2nc[nH]c2c(=S)[nH]1 [6TG, 6-thioguanine] | – | 24.6 ± 1.8
